Marks after values point to notes of the source that are not given here.
system: p16-3MR mice; test: ROC analysis of discriminatory power of circulating microRNAs; format: in vivo, mouse; details: serum, RT-qPCR, DOX vs PBS; symbol after the number = significance
Description: (§1) Statistical analysis was performed using Medcalc (version 18.2.1). Normal distribution was assessed using D'Agostino-Pearson test, where normality was accepted at p>0.05. One-way ANOVA together together with Student-Newman-Keuls test for all pairwise comparisons (post-hoc tests) was used to identify significant changes between groups (p<0.05). To assess the discriminatory power of individual microRNAs, receiver operating characteristic (ROC) analysis was applied. ROC curves were plotted using sensitivity (y-axis) and 1-specificity (x-axis) and the area under the ROC curve (AUC) was calculated. MicroRNAs with AUC-values of >0.7 were considered as good discriminators/biomarkers. MicroRNAs with AUC-values >0.8 were considered very good discriminators/biomarkers.
In order to assess the diagnostic power of circulating microRNAs for the exposure with senescence inducing substances (DOX) as well as the efficacy of senolytic treatment, ROC analysis was performed and the area-under-the-curve (AUC) was calculated. […] Table 23 below summarizes AUC values as well as 95% confidence intervals for 24 selected circulating microRNAs.

Substance	ROC Analysis AUC Senescence
miR-24-3p: circulating microRNA biomarker, SEQ ID No. 21 (UGGCUCAGUUCAGCAGGAACAG; expressed or natural sequence; listed as Homo sapiens)	0.609°
miR-375-5p: circulating microRNA biomarker, SEQ ID No. 88 (UUUGUUCGUUCGGCUCGCGUGA; expressed or natural sequence; listed as Homo sapiens)	0.570°
miR-23b-3p: circulating microRNA biomarker, SEQ ID No. 47 (AUCACAUUGCCAGGGAUUACC; expressed or natural sequence; listed as Homo sapiens)	0.563°
miR-34a-3p: circulating microRNA biomarker, SEQ ID No. 59 (CAAUCAGCAAGUAUACUGCCCU; expressed or natural sequence; listed as Homo sapiens)	0.953*
miR-181b-5p: circulating microRNA biomarker, SEQ ID No. 84 (AACAUUCAUUGCUGUCGGUGGGU; expressed or natural sequence; listed as Homo sapiens)	0.680+
miR-151-5p: circulating microRNA biomarker, SEQ ID No. 17 (UCGAGGAGCUCACAGUCUAGU; expressed or natural sequence; listed as Homo sapiens)	0.828*
miR-199a-5p: circulating microRNA biomarker, SEQ ID No. 81 (CCCAGUGUUCAGACUACCUGUUC; expressed or natural sequence; listed as Homo sapiens)	0.906*

same assay, conditions: serum, RT-qPCR, DOX/GCV vs DOX; symbol after the number = significance

Substance	ROC Analysis AUC Senolytic Treatment
miR-24-3p: circulating microRNA biomarker, SEQ ID No. 21 (UGGCUCAGUUCAGCAGGAACAG; expressed or natural sequence; listed as Homo sapiens)	0.789*
miR-375-5p: circulating microRNA biomarker, SEQ ID No. 88 (UUUGUUCGUUCGGCUCGCGUGA; expressed or natural sequence; listed as Homo sapiens)	0.859*
miR-23b-3p: circulating microRNA biomarker, SEQ ID No. 47 (AUCACAUUGCCAGGGAUUACC; expressed or natural sequence; listed as Homo sapiens)	0.875*
miR-34a-3p: circulating microRNA biomarker, SEQ ID No. 59 (CAAUCAGCAAGUAUACUGCCCU; expressed or natural sequence; listed as Homo sapiens)	0.5°
miR-181b-5p: circulating microRNA biomarker, SEQ ID No. 84 (AACAUUCAUUGCUGUCGGUGGGU; expressed or natural sequence; listed as Homo sapiens)	0.75+
miR-151-5p: circulating microRNA biomarker, SEQ ID No. 17 (UCGAGGAGCUCACAGUCUAGU; expressed or natural sequence; listed as Homo sapiens)	0.609°
miR-199a-5p: circulating microRNA biomarker, SEQ ID No. 81 (CCCAGUGUUCAGACUACCUGUUC; expressed or natural sequence; listed as Homo sapiens)	0.781*

system: p16-3MR mice; test: Pearson correlation of serum miRNA levels to miR-34a-5p and miR-27a-3p; set-up: species or system mouse; details: correlation of serum level to miR44a-5p (so in the source)
Excerpt: In order to extend these finding to potential additional miRNAs, we performed Pearson correlation to miR-34a-5p and miR-27a-3p, resulting in additional potential biomarkers (Table 18).

Substance	Pearson Correlcation coefficient miR44a-5p
mmu-miR-339-5p: circulating microRNA, SEQ ID No. 10 (UCCCUGUCCUCCAGGAGCUCACG; expressed or natural sequence; listed as Homo sapiens)	0.64
miR-24-3p: circulating microRNA biomarker, SEQ ID No. 21 (UGGCUCAGUUCAGCAGGAACAG; expressed or natural sequence; listed as Homo sapiens)	0.61
miR-151-5p: circulating microRNA biomarker, SEQ ID No. 17 (UCGAGGAGCUCACAGUCUAGU; expressed or natural sequence; listed as Homo sapiens)	0.73

same assay, conditions: correlation of serum level to miR-27a-3p

Substance	Pearson Correlcation coefficient miR-27a-3p
mmu-miR-339-5p: circulating microRNA, SEQ ID No. 10 (UCCCUGUCCUCCAGGAGCUCACG; expressed or natural sequence; listed as Homo sapiens)	0.87
miR-24-3p: circulating microRNA biomarker, SEQ ID No. 21 (UGGCUCAGUUCAGCAGGAACAG; expressed or natural sequence; listed as Homo sapiens)	0.89
miR-151-5p: circulating microRNA biomarker, SEQ ID No. 17 (UCGAGGAGCUCACAGUCUAGU; expressed or natural sequence; listed as Homo sapiens)	0.37

system: p16-3MR mice; test: RT-qPCR verification of serum circulating microRNA changes, one-way ANOVA; format: in vivo, mouse; details: independent of gender, in words
Description: p16-3MR (Demaria et al, 2014, Developmental Cell 31:722-733) mice were bred in house and maintained in the AALAC-accredited Buck Institute for Research on Aging (Novato, Calif.) animal facility. 10 to 12-week-old p16-3MR […] mice were used for experiments. Mice were divided in 4 groups and each group consisted of 8 animals, 5 female, and 3 male, respectively. In group A, control mice were injected with PBS. In group B, mice were treated with Ganciclovir (GCV) (Sigma-Aldrich) dissolved in PBS for 5 consecutive days. In group C, mice were treated with one dose of Doxorubicine hydrochloride (Sigma-Aldrich) dissolved in PBS. In group D, mice were first treated with Doxorubicine and then treated 10 days later with GCV. Mice were intraperitoneally injected with one dose of 10 mg/kg of Doxorubicine hydrochloride, and GCV was administered daily by intraperitoneal injections for 5 consecutive days at concentration of 25 mg/kg in PBS. 4 days after the last GCV dose, animals were euthanized with CO2 and blood was withdrawn immediately. Blood was then incubated for 30 min at room temperature and centrifuged at 3400×g for 10 min. Serum was carefully collected in a sterile tube without disturbing the cell pellet and stored at −80° C. for further experiments.
Total RNA extraction was performed from 200 μl of serum using the Qiagen miRNeasy extraction kit (Qiagen, Germany). RNA yield was quality checked for homogenous extraction efficiency and hemolysis on the basis qPCR amplification of spiked-in as well as hemolysis-responsive RNAs (Blondal et al). In total 2 μl total RNA were used for reverse transcription using the Exiqon Universal RT kit II (Exiqon, Denmark). The obtained cDNA samples were pre-diluted 1:40 and subsequently mixed with SYBR Green® Mix (Exiqon, Denmark) to achieve a 1:100 dilution. The mix was distributed to primer-coated 384-well plates containing dried primer pairs for 96 selected microRNA or quality control assays. QPCR amplification was performed on a Roche LightCycler 480 II, using the manufacturer's recommendation for annealing, extension and denaturation.
Raw Cq-values were computed using the 2nd derivative method. Melting curves were checked for peaks to ensure specificity of the amplification reactions. Cq-values were subsequently normalized using Spike-In controls as references, to reduce technical noise in the data.
as §1

Substance	regulation in serum after exposure to DOX compared to PBS
miR-34a-3p: circulating microRNA biomarker, SEQ ID No. 59 (CAAUCAGCAAGUAUACUGCCCU; expressed or natural sequence; listed as Homo sapiens)	significantly (up- or down-regulated)
miR-151-5p: circulating microRNA biomarker, SEQ ID No. 17 (UCGAGGAGCUCACAGUCUAGU; expressed or natural sequence; listed as Homo sapiens)	significantly (up- or down-regulated)
miR-199a-5p: circulating microRNA biomarker, SEQ ID No. 81 (CCCAGUGUUCAGACUACCUGUUC; expressed or natural sequence; listed as Homo sapiens)	significantly (up- or down-regulated)

same assay, conditions: p<0.05, in words

Substance	change of serum level following senolytic treatment (DOX/GCV compared to DOX)
miR-24-3p: circulating microRNA biomarker, SEQ ID No. 21 (UGGCUCAGUUCAGCAGGAACAG; expressed or natural sequence; listed as Homo sapiens)	significantly changed
miR-375-5p: circulating microRNA biomarker, SEQ ID No. 88 (UUUGUUCGUUCGGCUCGCGUGA; expressed or natural sequence; listed as Homo sapiens)	significantly changed
miR-23b-3p: circulating microRNA biomarker, SEQ ID No. 47 (AUCACAUUGCCAGGGAUUACC; expressed or natural sequence; listed as Homo sapiens)	significantly changed
miR-181b-5p: circulating microRNA biomarker, SEQ ID No. 84 (AACAUUCAUUGCUGUCGGUGGGU; expressed or natural sequence; listed as Homo sapiens)	significantly changed

same assay, conditions: serum, DOX/GCV compared to DOX

Substance	One-way ANOVA Senolytic Treatment (DOX/GCV)
miR-24-3p: circulating microRNA biomarker, SEQ ID No. 21 (UGGCUCAGUUCAGCAGGAACAG; expressed or natural sequence; listed as Homo sapiens)	* (significant p < 0.05)
miR-375-5p: circulating microRNA biomarker, SEQ ID No. 88 (UUUGUUCGUUCGGCUCGCGUGA; expressed or natural sequence; listed as Homo sapiens)	* (significant p < 0.05)
miR-23b-3p: circulating microRNA biomarker, SEQ ID No. 47 (AUCACAUUGCCAGGGAUUACC; expressed or natural sequence; listed as Homo sapiens)	* (significant p < 0.05)
miR-34a-3p: circulating microRNA biomarker, SEQ ID No. 59 (CAAUCAGCAAGUAUACUGCCCU; expressed or natural sequence; listed as Homo sapiens)	○
miR-181b-5p: circulating microRNA biomarker, SEQ ID No. 84 (AACAUUCAUUGCUGUCGGUGGGU; expressed or natural sequence; listed as Homo sapiens)	+ (by trend p < 0.2)
miR-151-5p: circulating microRNA biomarker, SEQ ID No. 17 (UCGAGGAGCUCACAGUCUAGU; expressed or natural sequence; listed as Homo sapiens)	○
miR-199a-5p: circulating microRNA biomarker, SEQ ID No. 81 (CCCAGUGUUCAGACUACCUGUUC; expressed or natural sequence; listed as Homo sapiens)	+ (by trend p < 0.2)

same assay, conditions: serum, n=8 per group, male and female mice

Substance	One-way ANOVA Senescence (DOX vs PBS)
miR-24-3p: circulating microRNA biomarker, SEQ ID No. 21 (UGGCUCAGUUCAGCAGGAACAG; expressed or natural sequence; listed as Homo sapiens)	○
miR-375-5p: circulating microRNA biomarker, SEQ ID No. 88 (UUUGUUCGUUCGGCUCGCGUGA; expressed or natural sequence; listed as Homo sapiens)	○
miR-23b-3p: circulating microRNA biomarker, SEQ ID No. 47 (AUCACAUUGCCAGGGAUUACC; expressed or natural sequence; listed as Homo sapiens)	○
miR-34a-3p: circulating microRNA biomarker, SEQ ID No. 59 (CAAUCAGCAAGUAUACUGCCCU; expressed or natural sequence; listed as Homo sapiens)	* (significant p < 0.05)
miR-181b-5p: circulating microRNA biomarker, SEQ ID No. 84 (AACAUUCAUUGCUGUCGGUGGGU; expressed or natural sequence; listed as Homo sapiens)	+ (by trend p < 0.2)
miR-151-5p: circulating microRNA biomarker, SEQ ID No. 17 (UCGAGGAGCUCACAGUCUAGU; expressed or natural sequence; listed as Homo sapiens)	* (significant p < 0.05)
miR-199a-5p: circulating microRNA biomarker, SEQ ID No. 81 (CCCAGUGUUCAGACUACCUGUUC; expressed or natural sequence; listed as Homo sapiens)	* (significant p < 0.05)

— patent US11814680B2, “Biomarkers for detecting senescent cells” (Universität für Bodenkultur Wien, priority 2017, dated 2023)
